Experiments:
[1] = system: H3K27 acetylation of SNCA promoter and enhancers; assay: chromatin immunoprecipitation for H3K27ac at SNCA promoter and enhancers in SK-N-MC cells; type: cell-based, human; conditions: clenbuterol 10 μM, valproic acid 100 μM, propranolol 100 μM, vs vehicle
Method: Chromatin immunoprecipitation (ChIP) assays were performed using the Simple ChIP Enzymatic Chromatin IP kit protocol as recommended by the manufacturer (Cell Signaling Technology) with slight modifications. Briefly, ChIPs were performed on asynchronously growing SK-N-MC cells treated with clenbuterol (10 μM), valproic acid (100 μM) or propranolol (100 μM). Cross-linking was carried out with 1% formaldehyde for 10 min at room temperature. Cross-linking was subsequently quenched by adding glycine to a final concentration of 1× for 5 min. Cells were collected and washed twice with PBS, then resuspended in 2 mL of lysis buffer (as described in the protocol). After 10 min on ice, cells were treated with micrococcal nuclease and then sonicated to obtain DNA fragments of ˜500 bp as determined by agarose gel electrophoresis with ethidium bromide staining. Protein-DNA complexes were isolated by centrifugation at 10,000 rpm for 10 min. Supernatants with protein-DNA complexes were incubated overnight with rabbit polyclonal antibody directed against acetylated H3K27 (Abcam). Normal rabbit IgG was used as a negative control and Histone H3 rabbit mAb (ChIP formulated) as positive control. 2% of sample was saved as input. Antibody-protein-DNA complexes were further incubated for 2 hours with 30 μl of ChIP-grade Protein G magnetic beads to isolate antibody bound fractions of chromatin. Immuno-complexes were washed with the buffers provided and as described in the kit. Protein-DNA complexes were eluted and cross-links of pull down fractions and inputs (2% of total IP fraction) were reversed by 2 hours incubation in Proteinase K and 5 M NaCl at 65° C. […] 2 μl of immunoprecipitated DNA was analyzed by qPCR using a Power SYBR Green PCR Master mix (Applied Biosystems by Life technologies) on an ABI 7900HT instrument (Applied Biosystems) with the following temperature profile: 3 min of enzyme activation at 95° C. followed by 40 cycles of 95° C. for 15 s and 60° C. for 60 s. Sample from three independent immunoprecipitation assays were analyzed.

[2] = system: Parkinson's disease; assay: Norwegian Prescription Database analysis of incident Parkinson's disease; type: in vivo, human
Source text: We included the entire population of Norway alive on 1 Jan. 2004 by linking the Norwegian National Registry (NNR) with the Norwegian Prescription Database (NorPD) using the unique national identification number. The NNR contains information on all residents in Norway, time of immigration, emigration and death. This information was further linked to the Norwegian National Education Database (NNED) to assess level of education of all participants.
This registry contains complete information on all prescribed drugs dispensed at pharmacies to individuals since 2004. Each prescription includes the national identification number, which makes it possible to generate a precise chronological prescription record for individuals over time, and to link this information to other registries. Drugs are classified according to the Anatomical Therapeutic Chemical classification and doses are reported as defined daily dose (DDD). If the national insurance scheme covers the cost of the drug, the prescription also contains the diagnosis the drug was prescribed for (from 2008: ICD-10 and ICPC; before 2008: local diagnostic code).
The first year of prescription of any antiparkinson drug (N04) was considered year of onset of PD. We used the year 2004 as a washout-period to only include incident cases.
To further limit the chance of reverse causality, we only included users who had been prescribed at least 365 DDD or more of propranolol.
The level of education was categorized into primary education, secondary education, undergraduate education or graduate education. Age at study start was categorized in 5 years intervals. […] Outcome was PD as defined above at time of first prescription of an antiparkinson drug. Participants not developing PD were censored at end of follow-up (31 Dec. 2014), at date of death or date of emigration out of Norway, whichever occurred first. To test for dose-response effects, we categorized participants according to the cumulative number of DDD in 2004-2007 and estimated the RR of developing PD in 2008-2014. […] The hazard ratios were interpreted as rate ratios.

Row | Structure (SMILES) | H3K27 acetylation across SNCA promoter and two intronic enhancers (ChIP) [1] | Rate ratio (RR) for Parkinson's disease, age-, sex-adjusted ([2]; ever user vs never user, 11 year follow-up of the entire population of Norway, propranolol: at least 365 defined daily doses) | Rate ratio (RR) for Parkinson's disease, multivariate adjusted ([2]; ever user vs never user, 11 year follow-up, adjusted for age, sex and level of education, propranolol: at least 365 defined daily doses) | Rate ratio for Parkinson's disease with time lag between first exposure and PD onset ([2]; time lags of one and two years, only cardiovascular diagnoses) | Rate ratio (RR) for Parkinson's disease during 2008-2014, multivariate adjusted ([2]; High (≥180 DDD) prescribed during 2004-2007, vs never user) | Rate ratio (RR) for Parkinson's disease during 2008-2014, multivariate adjusted ([2]; Medium (60-180 DDD) prescribed during 2004-2007, vs never user)
1 | CC(C)NCC(O)COc1cccc2ccccc12 (stereo not shown) [Propranolol, propranolol] | increased H3K27Ac | 2.16 | 2.20 | 1.82 |  | 
2 | CC(C)(C)NCC(O)c1ccc(O)c(CO)c1 (stereo not shown) [Salbutamol, salbutamol] |  |  |  |  | 0.45 (0.31-0.67) | 0.60 (0.40-0.91)
3 | CC(C)(C)NCC(O)c1cc(Cl)c(N)c(Cl)c1 (stereo not shown) [clenbuterol] | reduced H3K27 acetylation |  |  |  |  | 
